Laboratory results as given in the supplement of paper PMC8671470.

Legend:
Details in all cases: 72 h
HL-60 [1] = tested on: HL-60
Method in brief: (§1)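 For the IC50, dose–response curves were fitted with a log-logistic model. The data came from fifteen myeloid leukaemia cell lines grown in RPMI 1640 at densities in the linear growth range and incubated in 384-well plates for 72 h at 37 °C under 5% CO2. Doses were five tenfold steps from 1 to 10,000 nM in duplicate, and luminescent ATP viability was normalised to vehicle and to a positive control at 10 µM before four-parameter fitting.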

NOMO-1 [2] = tested on: NOMO-1
Method in brief: as §1

KU-812 [3] = tested on: KU-812
Method in brief: as §1

MOLM-13 [4] = tested on: MOLM-13
Method in brief: as §1

ML-2 [5] = tested on: ML-2
Method in brief: as §1

K-562 [6] = tested on: K-562
Method in brief: as §1

SHI-1 [7] = tested on: SHI-1
Method in brief: as §1

BV-173 [8] = tested on: BV-173
Method in brief: as §1

LAMA-84 [9] = tested on: LAMA-84
Method in brief: as §1

MV4-11 [10] = tested on: MV4-11
Method in brief: as §1

HEL [11] = tested on: HEL
Method in brief: as §1

THP-1 [12] = tested on: THP-1
Method in brief: as §1

KCL-22 [13] = tested on: KCL-22
Method in brief: as §1

Mono-Mac-6 [14] = tested on: Mono-Mac-6
Method in brief: as §1

KG-1 [15] = tested on: KG-1
Method in brief: as §1

HL-60 [16] = test: cell viability (% survival relative to DMSO control, bortezomib = 0%); higher = less cytotoxic
Method in brief: (§2)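 Seeding density for each of the 10 AML and 5 CML cell lines was titrated to the linear growth range. Cells went into 384-well plates pre-printed in duplicate with compounds at 1, 10, 100, 1000 or 10000 nM and were held for 72 h at 37 °C with 5% CO2. CellTiter-Glo luminescence then provided the readout. Percent survival is expressed relative to vehicle at 100% and a 10 µM positive control at 0%, averaged over duplicates.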

NOMO-1 [17] = test: as above
Method in brief: as §2

KU-812 [18] = test: as above
Method in brief: as §2

MOLM-13 [19] = test: as above
Method in brief: as §2

ML-2 [20] = test: as above
Method in brief: as §2

K-562 [21] = test: as above
Method in brief: as §2

SHI-1 [22] = test: as above
Method in brief: as §2

BV-173 [23] = test: as above
Method in brief: as §2

LAMA-84 [24] = test: as above
Method in brief: as §2

MV4-11 [25] = test: as above
Method in brief: as §2

HEL [26] = test: as above
Method in brief: as §2

THP-1 [27] = test: as above
Method in brief: as §2

KCL-22 [28] = test: as above
Method in brief: as §2

Mono-Mac-6 [29] = test: as above
Method in brief: as §2

KG-1 [30] = test: as above
Method in brief: as §2

O=c1[nH]c(=O)n([C@H]2C[C@H](O)[C@@H](CO)O2)cc1I [Idoxuridine]
Details	IC50 (cell viability) [µM]
BV-173 [8]	0.464
HEL [11]	1.47
HL-60 [1]	> 10
K-562 [6]	4.34
KCL-22 [13]	0.755
KG-1 [15]	> 10
KU-812 [3]	> 10
LAMA-84 [9]	5.59
ML-2 [5]	2.51
MOLM-13 [4]	4.76
MV4-11 [10]	1.63
Mono-Mac-6 [14]	6.63
NOMO-1 [2]	> 10
SHI-1 [7]	> 10
THP-1 [12]	> 10

cell viability [%]
Details	1 nM	10 nM	100 nM	1000 nM	10000 nM
BV-173 [23]	102	86.7	97.6	15.6	1.22
HEL [26]	93.8	90.5	92	59.7	36.1
HL-60 [16]	113	105	102	95	84
K-562 [21]	85.6	102	99.3	73.3	47.1
KCL-22 [28]	103	96.7	101	48.9	26.3
KG-1 [30]	101	108	105	84.1	63.3
KU-812 [18]	92.9	95.9	102	88.6	66.5
LAMA-84 [24]	102	88.8	103	87	47.1
ML-2 [20]	98.1	92.4	105	83.4	28.2
MOLM-13 [19]	116	91.2	94.1	83.5	32.1
MV4-11 [25]	103	89.2	92.6	63.6	21.7
Mono-Mac-6 [29]	96	91.4	93.5	76	52.1
NOMO-1 [17]	102	92.2	97.8	95.3	84.8
SHI-1 [22]	102	99.6	99.3	95.2	60.3
THP-1 [27]	95.4	100	99.6	104	90

O=C(Oc1cccc(F)c1OC(=O)c1cccc(O)c1)c1cccc(O)c1 [WZB117]
Details	IC50 (cell viability) [µM]
BV-173 [8]	4.56
HEL [11]	> 10
HL-60 [1]	9.7
K-562 [6]	> 10
KCL-22 [13]	> 10
KG-1 [15]	5.35
KU-812 [3]	3.88
LAMA-84 [9]	> 10
ML-2 [5]	5.89
MOLM-13 [4]	8.47
MV4-11 [10]	2.93
Mono-Mac-6 [14]	4.74
NOMO-1 [2]	> 10
SHI-1 [7]	> 10
THP-1 [12]	> 10

cell viability [%]
Details	1 nM	10 nM	100 nM	1000 nM	10000 nM
BV-173 [23]	96	104	90.5	98.8	15.4
HEL [26]	107	110	95.2	99.8	72.7
HL-60 [16]	102	98	93.3	104	48
K-562 [21]	96.2	101	102	106	79.1
KCL-22 [28]	101	91.4	92	110	70.6
KG-1 [30]	113	95.7	87.6	90.4	30.7
KU-812 [18]	99.1	103	90.9	99.9	9.71
LAMA-84 [24]	97.9	98.6	92.4	95.1	101
ML-2 [20]	102	104	98.7	98.8	25.5
MOLM-13 [19]	92.2	125	94.7	94	44.8
MV4-11 [25]	106	85.9	97	88.2	25.4
Mono-Mac-6 [29]	96.6	104	99.7	101	16.9
NOMO-1 [17]	95.5	94.3	94.1	111	82.1
SHI-1 [22]	95.8	95.6	102	103	72.5
THP-1 [27]	101	102	101	108	64.9

Nc1nc(O)c2c(CCc3ccc(C(=O)N[C@@H](CCC(=O)O)C(=O)O)cc3)c[nH]c2n1 [Pemetrexed]
Details	IC50 (cell viability) [µM]
BV-173 [8]	0.381
HEL [11]	0.116
HL-60 [1]	0.617
K-562 [6]	1.66
KCL-22 [13]	0.279
KG-1 [15]	> 10
KU-812 [3]	0.239
LAMA-84 [9]	0.0585
ML-2 [5]	0.336
MOLM-13 [4]	0.305
MV4-11 [10]	0.425
Mono-Mac-6 [14]	0.312
NOMO-1 [2]	1.37
SHI-1 [7]	2.32
THP-1 [12]	7.02

cell viability [%]
Details	1 nM	10 nM	100 nM	1000 nM	10000 nM
BV-173 [23]	89.2	91.9	104	4.73	1.8
HEL [26]	104	90.7	57.8	11.6	7.51
HL-60 [16]	110	99.6	113	31.5	9.36
K-562 [21]	95.8	104	92.3	68.4	27.8
KCL-22 [28]	98.5	102	78.4	36.9	24.3
KG-1 [30]	92	93.5	91.6	108	102
KU-812 [18]	98.9	102	71.1	38.6	39.3
LAMA-84 [24]	99	99.3	40	30.7	26
ML-2 [20]	102	101	96.3	14	10.5
MOLM-13 [19]	95.6	101	93.5	4.73	1.7
MV4-11 [25]	98.7	94.2	106	13.4	5.7
Mono-Mac-6 [29]	91.2	92.2	87.3	23.5	20.3
NOMO-1 [17]	91	94.8	82.8	51.9	50.2
SHI-1 [22]	99.2	102	106	68	43.4
THP-1 [27]	85	96	101	61.7	56.8
